Laboratory results reported in patent publication US6110962A, “11-aryl-benzo[B]naphtho[2,3-D]furans and 11-aryl-benzo[B]naphtho[2,3-D]thiophenes useful in the treatment of insulin resistance and hyperglycemia” (American Home Products Corporation, priority 1999, dated 2000).
Counter-ions that a name gives are not always drawn. Like-named read-outs stand apart in the source and are kept apart here.

Experiments:
[1] = test system: rat hepatic microsomal PTPases; conditions: PTPase activity, compound at 50 μM
Human recombinant PTP1B = biological target: T1, Human recombinant PTP1B (Homo sapiens, UniProt P18031); assay type: biochemical
T1 construct: made in house
T1 sequence (P18031 1-435): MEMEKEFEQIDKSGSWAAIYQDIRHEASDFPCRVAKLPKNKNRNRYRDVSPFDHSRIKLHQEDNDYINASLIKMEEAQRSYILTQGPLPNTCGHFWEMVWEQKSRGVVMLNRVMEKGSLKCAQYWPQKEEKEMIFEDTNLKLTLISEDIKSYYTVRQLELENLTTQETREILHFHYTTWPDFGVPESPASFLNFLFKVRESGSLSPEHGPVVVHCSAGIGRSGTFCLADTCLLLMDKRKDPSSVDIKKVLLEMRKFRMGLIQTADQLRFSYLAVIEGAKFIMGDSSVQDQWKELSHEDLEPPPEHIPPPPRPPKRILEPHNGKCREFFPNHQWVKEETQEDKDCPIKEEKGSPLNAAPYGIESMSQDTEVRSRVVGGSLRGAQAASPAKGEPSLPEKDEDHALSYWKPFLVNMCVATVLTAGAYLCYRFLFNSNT

Which “% Change from Control” value [1] does the source give for `Oc1cccc(-c2c3ccccc3c(Br)c3sc4ccccc4c23)c1` [Example 42, 3-(6-Bromo-benzo[b]naphtho[2,3-d]thiophen-11-yl)-phenol] here?
The value was -21.28%.

What about the IC50 (Human recombinant PTP1B; read-out: IC50) of the same compound?
Its IC50 is 1500 nM.

For `Oc1c(Br)cc(-c2c3ccccc3c(Br)c3oc4ccccc4c23)cc1Br` [Example 210, 2,6-Dibromo-4-(6-bromo-benzo[b]naphtho[2,3-d]furan-11ly)-phenol], which “% Change from Control” value [1] is on record?
Its value is -51.55%.

And the IC50 (Human recombinant PTP1B; read-out: IC50)?
Its IC50 is 1060 nM.

For `O=C(O)[C@@H](Cc1c[nH]cn1)Oc1c(Br)cc(-c2c3ccccc3c(Br)c3sc4ccccc4c23)cc1Br` [Example 120, (R)-2-[2,6-Dibromo-4-(6-bromo-benzo[b]naphtho[2,3-d]thiophen-11-yl)-phenoxy]-3-(1 H-imidazol-4-yl)-propionic acid, hydrochloride], which “% Change from Control” value [1] is on record?
The value was -17.35%.

What about the IC50 (Human recombinant PTP1B; read-out: IC50) of the same compound?
Its IC50 is 541 nM.

Which results are given for `O=C(O)C(Cc1cccnc1)Oc1c(Br)cc(-c2c3ccccc3c(Br)c3sc4ccccc4c23)cc1Br` (stereo not drawn) [Example 137, 2-[2,6-Dibromo-4-(6-bromo-benzo[b]naphtho[2,3-d]thiophen-11-yl)-phenoxy]-3-pyridin-3-yl-propionic acid]?
% Change from Control [1]: -64.92%; IC50 (Human recombinant PTP1B; read-out: IC50): 341 nM

`CC(=O)Oc1ccc(-c2c3ccccc3c(Br)c3sc4ccccc4c23)cc1` [Example 37, 4-(6-Bromo-benzo[b]naphtho[2,3-d]thiophen-11-yl-phenol)acetate(ester)] was tested. Which “% Change from Control” value [1] did it give?
Its value is -3.02%.

What about the IC50 (Human recombinant PTP1B; read-out: IC50) of the same compound?
Its IC50 is 1180 nM.

What does the source list for `O=C(O)COc1cc(-c2c3ccccc3c(Br)c3sc4ccccc4c23)c(Br)cc1Br` [Example 92, [2,4-Dibromo-5-(6-bromo-benzo[b]naphtho[2.3-d]thiophen-1-yl)-phenoxyl]-acetic acid]?
% Change from Control [1]: -98.16%; IC50 (Human recombinant PTP1B; read-out: IC50): 644 nM

`NC(=O)[C@@H](Cc1ccccc1)Oc1c(Br)cc(-c2c3ccccc3c(Br)c3sc4ccccc4c23)cc1Br` [Example 166] was tested. Which “% Change from Control” value [1] did it give?
The value was -26.86%.

And the IC50 (Human recombinant PTP1B; read-out: IC50)?
The IC50 was 565 nM.

For `COC(=O)[C@H](Cc1ccccc1)Oc1c(Br)cc(-c2c3ccccc3c(Br)c3sc4ccccc4c23)cc1Br` [Example 110, (S)-2-[2,6-Dibromo-4-(6-bromo-benzo[b]naphtho[2,3-d]thiophen-11-yl)-phenoxy]-3-phenyl-propionic acid, methyl ester], which “% Change from Control” value [1] is on record?
Its value is -12.78%.

What about the IC50 (Human recombinant PTP1B; read-out: IC50) of the same compound?
The IC50 was 1520 nM.

For `N#Cc1c2ccccc2c(-c2ccc(O[C@H](Cc3ccccc3)C(=O)O)cc2)c2c1sc1ccccc12` [Example 116, (R)-2-[4-(6-Cyano-benzo[b]naphtho[2,3-d]thiophen-11-yl)-phenoxy]-3-phenyl-propionic acid], which “% Change from Control” value [1] is on record?
Its value is -61.89%.

What about the IC50 (Human recombinant PTP1B; read-out: IC50) of the same compound?
Its IC50 is 765 nM.

Which “% Change from Control” value [1] does the source give for `COc1c2ccccc2c(-c2cc(Br)c(O)c(Br)c2)c2c1sc1ccccc12` [Example 63] here?
Its value is -47.53%.

What about the IC50 (Human recombinant PTP1B; read-out: IC50) of the same compound?
The IC50 was 904 nM.

Which results are given for `C[C@@H](Oc1cc(-c2c3ccccc3c(Br)c3sc4ccccc4c23)ccc1Br)C(=O)O` [Example 144, (R)-2-[2-bromo-5-(6-Bromo-benzo[b]naphtho[2,3-d]thiophen-11-yl)-phenoxyl]-propionic acid]?
% Change from Control [1]: -85.24%; IC50 (Human recombinant PTP1B; read-out: IC50): 1130 nM

Which results are given for `O=C(O)C[C@@H](Oc1c(Br)cc(-c2c3ccccc3c(Br)c3sc4ccccc4c23)cc1Br)C(=O)O` [Example 152, (R)-2-[2,6-Dibromo-4-(6-bromo-benzo[b]naphtho[2,3-d]thiophen-11-yl)-phenoxy]-succinic acid]?
% Change from Control [1]: -95.22%; IC50 (Human recombinant PTP1B; read-out: IC50): 994 nM

How did the “% Change from Control” value [1] turn out when `Oc1cc(-c2c3ccccc3c(Br)c3sc4ccccc4c23)ccc1Br` [Example 68, 2-Bromo-5-(6-bromo-benzo[b]naphtho[2,3-d]thiophen-11-yl)-phenol] was run?
Its value is -26.32%.

And the IC50 (Human recombinant PTP1B; read-out: IC50)?
The IC50 was 1020 nM.

Which results are given for `COc1c(O)cc(-c2c3ccccc3c(Br)c3sc4ccccc4c23)cc1Br` [Example 195, 3-Bromo-5-(6-bromo-benzo[b]naphtho[2,3-d]thiophen-11-yl)-2-methoxy-phenol]?
% Change from Control [1]: -29.34%; IC50 (Human recombinant PTP1B; read-out: IC50): 889 nM

Which results are given for `NC(=O)COc1c(Br)cc(-c2c3ccccc3c(Br)c3sc4ccccc4c23)cc1Br` [Example 165]?
% Change from Control [1]: -3.12%; IC50 (Human recombinant PTP1B; read-out: IC50): 665 nM

How did the “% Change from Control” value [1] turn out when `CC(C)c1cc(-c2c3ccccc3c(Br)c3sc4ccccc4c23)cc(C(C)C)c1O` [Example 40, 4-(6-Bromo-benzo[b]naphtho[2,3-d]thiophen-11-yl)-2,6-diisopropyl-phenol] was run?
Its value is -1.40%.

What about the IC50 (Human recombinant PTP1B; read-out: IC50) of the same compound?
Its IC50 is 1100 nM.

Which results are given for `N#CCOc1c(Br)cc(-c2c3ccccc3c(Br)c3sc4ccccc4c23)cc1Br` [Example 169, [2,6-Dibromo-4-(6-bromo-benzo[b]naphtho[2.3-d]thiophen-11-yl)-phenoxy]-acetonitrile]?
% Change from Control [1]: -9.30%; IC50 (Human recombinant PTP1B; read-out: IC50): 1220 nM

With `N#C[C@@H](Cc1ccccc1)Oc1c(Br)cc(-c2c3ccccc3c(Br)c3sc4ccccc4c23)cc1Br` [Example 170, (R)-2-[2,6-Dibromo-4-(6-bromo-benzo[b]naphtho[2,3-d]thiophen-11-yl)-phenoxy]-3-phenyl-propionitrile] as the compound, how does the “% Change from Control” value [1] read?
Its value is -18.79%.

And the IC50 (Human recombinant PTP1B; read-out: IC50)?
Its IC50 is 607 nM.

Which results are given for `Cc1c2ccccc2c(-c2cc(Br)c(O[C@H](Cc3ccccc3)C(=O)O)c(Br)c2)c2c1sc1ccccc12` [Example 141]?
% Change from Control [1]: -76.58%; IC50 (Human recombinant PTP1B; read-out: IC50): 126 nM

For `Cc1c2ccccc2c(-c2cc(Br)c(O)c(Br)c2)c2c1sc1ccccc12` [Example 62, 2,6-Dibromo-4-(6-methyl-benzo[b]naphtho[2,3-d]thiophen-11-yl)-phenol], which “% Change from Control” value [1] is on record?
The value was -40.14%.

What about the IC50 (Human recombinant PTP1B; read-out: IC50) of the same compound?
The IC50 was 654 nM.

How did the “% Change from Control” value [1] turn out when `N#Cc1cc(-c2c3ccccc3cc3sc4ccccc4c23)cc(C#N)c1OCC(=O)O` [Example 81, [(4-Benzo[b]naphtho[2,3-d]thiophen-11-yl)-2,6-dicyano-phenoxy]-acetic acid] was run?
Its value is -47.69%.

What about the IC50 (Human recombinant PTP1B; read-out: IC50) of the same compound?
The IC50 was 1990 nM.

How did the “% Change from Control” value [1] turn out when `Oc1c(Br)cc(-c2c3ccccc3c(Br)c3sc4ccccc4c23)cc1Br` [Example 21, 2,6-Dibromo-4-(6-bromo-benzo[b]naphtho[2,3-d]thiophen-11-yl)-phenol] was run?
Its value is -32.41%.

What about the IC50 (Human recombinant PTP1B; read-out: IC50) of the same compound?
The IC50 was 384 nM.

Which results are given for `O=C(O)[C@H](CCc1ccccc1)Oc1c(Br)cc(-c2c3ccccc3c(Br)c3sc4ccccc4c23)cc1Br` [Example 118]?
% Change from Control [1]: -82.00%; IC50 (Human recombinant PTP1B; read-out: IC50): 31 nM

How did the “% Change from Control” value [1] turn out when `N#Cc1c2ccccc2c(-c2cc(Br)c(O)c(Br)c2)c2c1sc1ccccc12` [Example 58, 11-(3,5-Dibromo-4-hydroxy-phenyl)-benzo[b]naphtho[2,3-d]thiophene-6-carbonitrile] was run?
Its value is -43.32%.

What about the IC50 (Human recombinant PTP1B; read-out: IC50) of the same compound?
Its IC50 is 1010 nM.

What does the source list for `O=C(O)[C@H](Cc1ccccc1)Oc1ccc(-c2c3ccccc3c(Br)c3sc4ccccc4c23)cc1` [Example 114, (S)-2-[4-(6-bromo-benzo[b]naphtho[2,3-d]thiophen-11-yl)-phenoxy]-3-phenyl-propionic acid]?
% Change from Control [1]: -68.03%; IC50 (Human recombinant PTP1B; read-out: IC50): 589 nM

For `N#CCCNC(=O)[C@@H](Cc1ccccc1)Oc1c(Br)cc(-c2c3ccccc3c(Br)c3sc4ccccc4c23)cc1Br` [Example 168], which “% Change from Control” value [1] is on record?
Its value is -17.85%.

What about the IC50 (Human recombinant PTP1B; read-out: IC50) of the same compound?
Its IC50 is 994 nM.

What does the source list for `Oc1ccc(-c2c3ccccc3c(Br)c3sc4ccccc4c23)cc1` [Example 41, 4-(6-Bromo-benzo[b]naphtho[2,3-d]thiophen-11-yl)-phenol]?
% Change from Control [1]: -39.32%; IC50 (Human recombinant PTP1B; read-out: IC50): 1080 nM

`O=C(O)[C@@H](CCN1C(=O)c2ccccc2C1=O)Oc1ccc(-c2c3ccccc3c(Br)c3sc4ccccc4c23)cc1` [Example 150] was tested. Which “% Change from Control” value [1] did it give?
Its value is -92.46%.

And the IC50 (Human recombinant PTP1B; read-out: IC50)?
The IC50 was 207 nM.

`Oc1c(Br)cc(-c2c3ccccc3c(Cl)c3sc4ccccc4c23)cc1Br` [Example 60, 2,6-Dibromo-4-(6-chloro-benzo[b]naphtho[2,3-d]thiophen-11-yl)-phenol] was tested. Which “% Change from Control” value [1] did it give?
The value was -25.07%.

And the IC50 (Human recombinant PTP1B; read-out: IC50)?
Its IC50 is 129 nM.

Which results are given for `O=P(O)(O)Oc1c(Br)cc(-c2c3ccccc3c(Br)c3sc4ccccc4c23)cc1Br` [Example 177, Phosphoric acid Mono-[2,6-dibromo-4-(6-bromo-benzo[b]naphtho[2,3-d]thiophen-11-yl)-phenyl]ester]?
% Change from Control [1]: -69.35%; IC50 (Human recombinant PTP1B): 1080 nM
